The experiment deals with STAT3 (Homo sapiens, UniProt P40763). Kind of experiment: STAT3 HiBiT degradation assay in transfected A549 cells. To be noted: A549, 24 h; read-out: STAT3 HiBiT A549 degradation 24 h: Average external-Abs DC50. Also on record: expressed in transfected cells; host or cells: A549. The experiment is classed as cell-based. Summed up: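 Degradation read as HiBiT-tagged STAT3 luminescence (Nano-Glo lytic reagent, 10 min, room temperature) following 24 h compound treatment of transfected A549 cells at 3-fold, 10 points. Percent remaining signal computed against controls and fitted with a four-parameter logistic; DC50 reported as letter bins (A <0.01 to D >1.0 µM).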
A general note: HiBiT is a short tag that completes a luciferase, so light tracks the accessible tagged protein.

Some results are limits rather than exact numbers.

Chain of STAT3 (P40763 whole entry): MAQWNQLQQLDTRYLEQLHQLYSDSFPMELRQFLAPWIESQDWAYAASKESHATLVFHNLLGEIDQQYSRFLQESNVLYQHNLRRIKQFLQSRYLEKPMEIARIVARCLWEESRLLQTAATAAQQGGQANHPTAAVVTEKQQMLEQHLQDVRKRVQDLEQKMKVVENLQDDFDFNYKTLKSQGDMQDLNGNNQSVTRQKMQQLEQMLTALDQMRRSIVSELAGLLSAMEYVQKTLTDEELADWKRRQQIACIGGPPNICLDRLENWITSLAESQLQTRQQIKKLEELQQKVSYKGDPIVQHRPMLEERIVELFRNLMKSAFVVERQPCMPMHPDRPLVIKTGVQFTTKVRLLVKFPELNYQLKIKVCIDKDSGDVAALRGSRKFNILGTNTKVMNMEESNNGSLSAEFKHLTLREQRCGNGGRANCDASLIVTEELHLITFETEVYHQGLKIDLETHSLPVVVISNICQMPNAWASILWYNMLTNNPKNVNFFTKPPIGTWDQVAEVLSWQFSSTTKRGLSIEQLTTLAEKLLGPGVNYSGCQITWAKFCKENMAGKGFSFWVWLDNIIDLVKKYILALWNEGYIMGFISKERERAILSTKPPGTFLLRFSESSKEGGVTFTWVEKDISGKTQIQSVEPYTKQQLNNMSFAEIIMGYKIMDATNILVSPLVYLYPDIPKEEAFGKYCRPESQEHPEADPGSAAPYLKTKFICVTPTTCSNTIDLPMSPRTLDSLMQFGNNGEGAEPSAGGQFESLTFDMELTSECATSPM

Regarding `Cc1ncsc1-c1ccc([C@H](C)NC(=O)[C@@H]2C[C@H](O)CN2C(=O)[C@@H](NC(=O)CCCCc2ccc(CO[C@H](C)[C@H](CCC(N)=O)NC(=O)[C@@H]3Cc4cccc5c4N3C(=O)[C@@H](NC(=O)c3cc4cc(C(=O)P(=O)(O)O)ccc4[nH]3)CC5)cc2)C(C)(C)C)cc1` [Compound I-149, diammonium 2-[[(2S,11S)-2-[[(3S,4R)-1-carbamoyl-4-[[4-(4-[[(2S)-1-[(2S,4S)-4-hydroxy-2-[[(1S)-1-[4-(4-methyl-1,3-thiazol-5-yl)phenyl]ethyl]carbamoyl]pyrrolidin-1-yl]-3,3-dimethyl-1-oxobutan-2-yl]carbamoyl]butyl)phenyl]methoxy]pentan-3-yl]carbamoyl]-12-oxo-1-azatricyclo [6.4.1.0^[4,13]]trideca-4(13),5,7-trien-11-yl]carbamoyl]-1H-indole-5-carbonylphosphonate], the half-maximal degradation concentration (DC50) (usually the concentration at which degradation of the target reaches its halfway point) was greater than 1000 nM.
The same measure for `Cn1c(=O)n(C2CCC(=O)NC2=O)c2ccc(N3CCN(CCC(=O)N4CC[C@H]5CC[C@@H](C(=O)N[C@@H](CCC(N)=O)C(=O)NC(c6ccccc6)c6ccccc6)N5C(=O)[C@@H](NC(=O)c5cc6cc(C(=O)P(=O)(O)O)ccc6[nH]5)C4)CC3)cc21` (stereo partly drawn) [Compound I-175, 2-[[(5S,8S,10aR)-8-[[(1S)-3-carbamoyl-1-(diphenylmethylcarbamoyl)propyl]carbamoyl]-3-(3-[4-[1-(2,6-dioxopiperidin-3-yl)-3-methyl-2-oxo-1,3-benzodiazol-5-yl]piperazin-1-yl]propanoyl)-6-oxo-octahydropyrrolo[1,2-a][1,5]diazocin-5-yl]carbamoyl]-1H-indole-5-carbonylphosphonic acid]: 100 to 1000 nM.
The same measure for `Cn1c(=O)n(C2CCC(=O)NC2=O)c2ccc(C3CCN(CCCC(=O)N4CC[C@H]5CC[C@@H](C(=O)N[C@@H](CCC(N)=O)C(=O)NC(c6ccccc6)c6ccccc6)N5C(=O)[C@@H](NC(=O)c5cc6cc(C(=O)P(=O)(O)O)ccc6[nH]5)C4)CC3)cc21` (stereo partly drawn) [Compound I-169, 2-[[(5S,8S,10aR)-8-[[(1S)-3-carbamoyl-1-(diphenylmethylcarbamoyl)propyl]carbamoyl]-3-(4-[4-[1-(2,6-dioxopiperidin-3-yl)-3-methyl-2-oxo-1,3-benzodiazol-5-yl]piperidin-1-yl]butanoyl)-6-oxo-octahydropyrrolo[1,2-a][1,5]diazocin-5-yl]carbamoyl]-1H-indole-5-carbonylphosphonic acid]: 100 to 1000 nM.
The same measure for `Cn1c(=O)n(C2CCC(=O)NC2=O)c2ccc(CC3CCN(CC(=O)N4CC[C@H]5CC[C@@H](C(=O)N[C@@H](CCC(N)=O)C(=O)NC(c6ccccc6)c6ccccc6)N5C(=O)[C@@H](NC(=O)c5cc6cc(C(=O)P(=O)(O)O)ccc6[nH]5)C4)CC3)cc21` (stereo partly drawn) [Compound I-158, 2-[[(5S,8S,10aR)-8-[[(1S)-3-carbamoyl-1-(diphenylmethylcarbamoyl)propyl]carbamoyl]-3-[2-(4-[[1-(2,6-dioxopiperidin-3-yl)-3-methyl-2-oxo-1,3-benzodiazol-5-yl]methyl]piperidin-1-yl)acetyl]-6-oxo-octahydropyrrolo[1,2-a][1,5]diazocin-5-yl]carbamoyl]-1H-indole-5-carbonylphosphonic acid]: greater than 1000 nM; for `Cn1c(=O)n(C2CCC(=O)NC2=O)c2ccc(C[C@H]3CC[C@H](CC(=O)N4CC[C@H]5CC[C@@H](C(=O)N[C@@H](CCC(N)=O)C(=O)NC(c6ccccc6)c6ccccc6)N5C(=O)[C@@H](NC(=O)c5cc6cc(C(=O)P(=O)(O)O)ccc6[nH]5)C4)CC3)cc21` (stereo partly drawn) [Compound I-166, 2-[[(5S,8S,10aR)-8-[[(1S)-3-carbamoyl-1-(diphenylmethylcarbamoyl)propyl]carbamoyl]-6-oxo-3-[2-[(1r, 4r)-4-[[1-(2,6-dioxopiperidin-3-yl)-3-methyl-2-oxo-1,3-benzodiazol-5-yl]methyl]cyclohexyl]acetyl]-octahydropyrrolo[1,2-a][1,5]diazocin-5-yl]carbamoyl]-1H-indole-5-carbonylphosphonic acid]: 10 to 100 nM; for `Cc1ncsc1-c1ccc([C@H](C)NC(=O)[C@@H]2C[C@@H](O)CN2C(=O)[C@@H](NC(=O)CCCCc2ccc(CO[C@H](C)[C@H](CCC(N)=O)NC(=O)[C@@H]3Cc4cccc5c4N3C(=O)[C@@H](NC(=O)c3cc4cc(C(=O)P(=O)(O)O)ccc4[nH]3)CC5)c(F)c2)C(C)(C)C)cc1` [Compound I-225, diammonium 2-[[(2S,11S)-2-[[(3S,4R)-1-carbamoyl-4-[[2-fluoro-4-(4-[[(2S)-1-[(2S,4R)-4-hydroxy-2-[[(1S)-1-[4-(4-methyl-1,3-thiazol-5-yl)phenyl]ethyl]carbamoyl]pyrrolidin-1-yl]-3,3-dimethyl-1-oxobutan-2-yl]carbamoyl]butyl)phenyl]methoxy]pentan-3-yl]carbamoyl]-12-oxo-1-azatricyclo[6.4.1.0^[4,13]]trideca-4(13),5,7-trien-11-yl]carbamoyl]-1H-indole-5-carbonylphosphonate]: 100 to 1000 nM.
Consider `Cc1ncsc1-c1ccc([C@H](C)NC(=O)[C@@H]2C[C@@H](O)CN2C(=O)[C@@H](NC(=O)Cc2cccc(OC[C@H](CCC(N)=O)NC(=O)[C@@H]3Cc4cccc5c4N3C(=O)[C@@H](NC(=O)c3cc4cc(C(=O)P(=O)(O)O)ccc4[nH]3)CC5)c2)C(C)(C)C)cc1` [Compound I-256, 2-[[(2S,11S)-2-[[(2S)-4-carbamoyl-1-[3-([[(2S)-1-[(2S,4R)-4-hydroxy-2-[[(1S)-1-[4-(4-methyl-1,3-thiazol-5-yl)phenyl]ethyl]carbamoyl]pyrrolidin-1-yl]-3,3-dimethyl-1-oxobutan-2-yl]carbamoyl]methyl)phenoxy]butan-2-yl]carbamoyl]-12-oxo-1-azatricyclo[6.4.1.0^[4,13]]trideca-4(13),5,7-trien-11-yl]carbamoyl]-1H-indole-5-carbonylphosphonic acid], for which the 50% degradation concentration (DC50) was greater than 1000 nM.
To `Cc1ncsc1-c1ccc(CNC(=O)[C@@H]2C[C@@H](O)CN2C(=O)[C@@H](NC(=O)CCC/C=C/c2ccc(CO[C@H](C)[C@H](CCC(N)=O)NC(=O)[C@@H]3Cc4cccc5c4N3C(=O)[C@@H](NC(=O)c3cc4cc(C(=O)P(=O)(O)O)ccc4[nH]3)CC5)cc2)C(C)(C)C)cc1` [Compound I-129, diammonium 2-[[(2S,11S)-2-[[(3S,4R)-1-carbamoyl-4-([4-[(1E)-5-[[(2S)-1-[(2S,4R)-4-hydroxy-2-([[4-(4-methyl-1,3-thiazol-5-yl)phenyl]methyl]carbamoyl)pyrrolidin-1-yl]-3,3-dimethyl-1-oxobutan-2-yl]carbamoyl]pent-1-en-l-yl]phenyl]methoxy)pentan-3-yl]carbamoyl]-12-oxo-1-azatricyclo[6.4.1.0^[4,13]]trideca-4(13),5,7-trien-11-yl]carbamoyl]-1H-indole-5-carbonylphosphonate] belongs 100 to 1000 nM; to `Cc1ncsc1-c1ccc([C@H](C)NC(=O)[C@@H]2C[C@@H](O)CN2C(=O)[C@@H](NC(=O)CCCCc2cccc(NC(=O)C(CCC(N)=O)NC(=O)[C@@H]3Cc4cccc5c4N3C(=O)[C@@H](NC(=O)c3cc4cc(C(=O)P(=O)(O)O)ccc4[nH]3)CC5)c2Cl)C(C)(C)C)cc1` (stereo partly drawn) [Compound I-246, diammonium 2-[[(2S,11S)-2-[(3-carbamoyl-1-[[2-chloro-3-(4-[[(2S)-1-[(2S,4R)-4-hydroxy-2-[[(1S)-1-[4-(4-methyl-1,3-thiazol-5-yl)phenyl]ethyl]carbamoyl]pyrrolidin-1-yl]-3,3-dimethyl-1-oxobutan-2-yl]carbamoyl]butyl)phenyl]carbamoyl]propyl)carbamoyl]-12-oxo-1-azatricyclo[6.4.1.0^[4,13]]trideca-4(13),5,7-trien-11-yl]carbamoyl]-1H-indole-5-carbonylphosphonate], 10 to 100 nM; to `Cc1ncsc1-c1ccc(CNC(=O)[C@@H]2C[C@@H](O)CN2C(=O)[C@@H](NC(=O)[C@H]2C[C@H](Cc3ccc(CO[C@H](C)[C@H](CCC(N)=O)NC(=O)[C@@H]4Cc5cccc6c5N4C(=O)[C@@H](NC(=O)c4cc5cc(C(=O)P(=O)(O)O)ccc5[nH]4)CC6)cc3)C2)C(C)(C)C)cc1` [Compound I-146, diammonium 2-[[(2S,11S)-2-[[(3S,4R)-1-carbamoyl-4-[(4-[[(1r,3r)-3-[[(2S)-1-[(2S,4R)-4-hydroxy-2-([[4-(4-methyl-1,3-thiazol-5-yl)phenyl]methyl]carbamoyl)pyrrolidin-1-yl]-3,3-dimethyl-1-oxobutan-2-yl]carbamoyl]cyclobutyl]methyl]phenyl)methoxy]pentan-3-yl]carbamoyl]-12-oxo-1-azatricyclo[6.4.1.0^[4,13]]trideca-4(13),5,7-trien-11-yl]carbamoyl]-1H-indole-5-carbonylphosphonate], 100 to 1000 nM.
Consider `Cc1ncsc1-c1ccc(CNC(=O)[C@@H]2C[C@H](O)CN2C(=O)[C@@H](NC(=O)CCCCc2ccc(CO[C@H](C)[C@H](CCC(N)=O)NC(=O)[C@@H]3Cc4cccc5c4N3C(=O)[C@@H](NC(=O)c3cc4cc(C(=O)P(=O)(O)O)ccc4[nH]3)CC5)cc2)C(C)(C)C)cc1` [Compound I-121, diammonium 2-[[(2S,11S)-2-[[(3S,4R)-1-carbamoyl-4-[[4-(4-[[(2S)-1-[(2S,4S)-4-hydroxy-2-([[4-(4-methyl-1,3-thiazol-5-yl)phenyl]methyl]carbamoyl)pyrrolidin-1-yl]-3,3-dimethyl-1-oxobutan-2-yl]carbamoyl]butyl)phenyl]methoxy]pentan-3-yl]carbamoyl]-12-oxo-1-azatricyclo[6.4.1.0^[4,13]]trideca-4(13),5,7-trien-11-yl]carbamoyl]-1H-indole-5-carbonylphosphonate], for which the DC50 was greater than 1000 nM.

The values are drawn from patent US12077555B2, “STAT degraders and uses thereof” (Kymera Therapeutics, Inc., priority 2019, dated 2024).
